These results are taken from patent US5496834A, “Lactol derivatives, their production and use” (Takeda Chemical Industries, Ltd., priority 1993, dated 1996).

One series deals with T1, human cathepsin L (Homo sapiens, UniProt P07711).
T1 construct: made in house
The experiment in a line: human cathepsin L inhibitory action. The class given is biochemical. The note with it: recombinant human cathepsin L, substrate Z-Phe-Arg-NMec, pH 5.5, 30° C., 10 minutes. The protocol: The recombinant human cathepsin L obtained by the procedure described in Example 8 of the specification of EPC 931098792 (European Publication No. 0576953 A2) (which is incorporated herein by reference) was diluted to 1 μg/ml with a diluent (0.1% Brij35, Sigma). This diluted enzyme solution was admixed with 46 μl of said diluent, 2 μl of 0.1M DTT and 25 μl of an activator/buffer (340 mM sodium acetate, 60 mM acetic acid, 4 mM EDTA disodium, pH 5.5). Then, 1 μl of a solution of the test compound in dimethyl sulfoxide (DMSO) (10 ^-2 M) and 25 μl of 20 μM Z-phe-Arg-NMec (substrate solution) were added. The mixture was incubated at 30° C. for 10 minutes, after which 100 μl of a reaction stopper (100 mM sodium monochloroacetate, 30 mM sodium acetate, pH 4.3) was added. This reaction was carried out on a 96-well Fluoroplate (Labosystems).
After termination of the reaction, the intensity of fluorescence of liberated aminomethylcoumarin at 450 nm was measured at an excitation wavelength of 365 nm. As a blank experiment, 1 μl of DMSO not containing the test compound was added and the intensity of fluorescence after the reaction was taken as 100% activity. For a sample showing a residual activity of 10% or less, a further diluted solution was used to determine the residual activity by the same procedure as above. Then, IC50 values were calculated.

Series [1] deals with bone (antebrachial bones: radii, cubiti). Put plainly: bone resorption inhibitory action (45Ca release from cultured fetal rat bones). In kind it is cell-based, Sprague-Dawley rat. The conditions noted are these: 48 h, 2 days culture, mean of 5 bone pieces, lower = stronger inhibition, read-out: Bone resorption Inhibitory Activity [45Ca release (Percent to control)]; for activity at 10 µM: concentration 10 μM, p<0.05, p<0.01, ***, p<0.001 vs. control; for activity at 30 µM: concentration 30 μM, p<0.05, p<0.01 vs. control. The method, then:
Bone resorption inhibitory activity was assayed by the method of Raisz [J. Clin. Invest. 44, 103-116 (1965) which is incorporated herein by reference]. Thus, a Sprague-Dawley rat on day 18 of gestation was subcutaneously dosed with 50 μCi of ^45 Ca (an isotope of calcium, dissolved in CaCl2). The following day, the abdomen was opened and the fetuses were aseptically extracted. Under the dissecting microscope, the bilateral antebrachial bones (radii, cubiti) were separated from the carcass and the connective tissues and cartilages were removed as far as possible to prepare bone culture specimens. Each of these bone specimens was put in 0.6 ml of BGJb medium (Fitton-Jackson modification; GIBCO Laboratories, USA) supplemented with bovine serum albumin (final concentration 2 mg/ml) and incubated at 37° C. for 24 hours. This bone was further cultured in the same medium containing the test compound (final concentration 10 μM or 30 μM) for 2 days. The percent ratio (%) of ^45 Ca released from the bone to the medium was calculated from the radioactivity count in the medium and that in the bone by means of the following equation. [formula]
As a control group, the bones from a fetus of the same litter were similarly cultured for 2 days. The mean ± standard deviation was calculated for 5 bone pieces per group and the percentage (%) of this value relative to the value of the control group was calculated.

The test system of another series is mice. The experiment in a line: oral toxicity in mice. The class given is in vivo. The conditions noted are these: 500 mg/kg. The source says:
Moreover, its toxic potential is low. […] Therefore, the compound (Ia) or (Ib) of this invention can be used in the prophylaxis and therapy of osteoporosis in mammalian animals (e.g. mouse, rat, rabbit, dog, cat, cattle, swine and man).

In another series the test system is cathepsin L. The note with it: reported as one of their inhibition activities; cited from earlier work.

One may read the IC50 as the concentration at which inhibition is half-maximal.

Numbered stars: 1 amine (or outer) side, 2 acyl side, 3 side chain; on linkers, the order of the positions; unused ones are H or OH. Peptide text beside a SMILES is read from it. CO = O=C([*:1])[*:2]

T1 sequence (P07711 114-333): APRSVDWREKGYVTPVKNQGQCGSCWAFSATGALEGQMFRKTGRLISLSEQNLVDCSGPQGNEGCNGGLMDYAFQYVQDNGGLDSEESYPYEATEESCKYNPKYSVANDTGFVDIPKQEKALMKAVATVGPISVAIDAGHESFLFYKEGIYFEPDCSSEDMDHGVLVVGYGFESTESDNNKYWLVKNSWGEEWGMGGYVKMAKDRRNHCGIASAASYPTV

Regarding `CC(C)(C)OC(=O)N[C@@H](Cc1ccccc1)C(=O)N[C@H]1CCOC1O` (stereo partly drawn) [Example 1, (3S)-3-[[N-tert-butoxycarbonyl-(L)-phenylalanyl]amino]-2-hydroxytetrahydrofuran], the IC50 on human cathepsin L worked out at 30 nM.
On to `CC[C@H](C)[C@H](NS(=O)(=O)c1cccc2ccccc12)C(=O)N[C@H]1CCOC1O` (stereo partly drawn) [Example 4], for which the IC50 on human cathepsin L amounted to 57 nM.
Still for that read-out and setting: the same measure for `O=C(N[C@@H](Cc1ccccc1)C(=O)N[C@H]1CCOC1O)OCc1ccccc1` (stereo partly drawn) [Example 5]: 8 nM; for `CC(C)[C@H](NC(=O)OCc1ccccc1)C(=O)N[C@H]1CCOC1O` (stereo partly drawn) [Example 6]: 30 nM.
Turning to `CCCC(CCC)C(=O)N[C@H](C(=O)N[C@H]1CCOC1O)C(C)C` (stereo partly drawn) [Example 12], the IC50 on human cathepsin L came out at 32 nM. In addition, in series [1], the activity at 10 µM worked out at 64%.
Consider `O=C(COc1ccccc1)N[C@@H](Cc1ccccc1)C(=O)N[C@H]1CCOC1O` (stereo partly drawn) [Example 14], for which the IC50 on human cathepsin L is 9.4 nM.
On to `CC(C)C[C@H](NC(=O)OCc1ccccc1)C(=O)N[C@H]1CCOC1O` (stereo partly drawn) [Example 15], for which, in series [1], the activity at 10 µM is 26%.
In the case of `CC(C)C[C@H](NC(=O)OCc1ccccc1)C(=O)N[C@@H](CC(C)C)C(=O)N[C@H]1CCOC1O` (stereo partly drawn) [Example 16], the activity at 10 µM in series [1] was 77%.
Consider `CC(C)C[C@H](NC(=O)Nc1cccc2ccccc12)C(=O)N[C@H]1CCOC1O` (stereo partly drawn) [Example 17], for which the IC50 at human cathepsin L worked out at 6.9 nM.
In the case of `CC(C)C[C@H](NC(=S)Nc1cccc2ccccc12)C(=O)N[C@H]1CCOC1O` (stereo partly drawn) [Example 21], the activity at 10 µM in series [1] is 67%.
`O=C(N[C@@H](Cc1ccccc1)C(=O)N[C@H]1CCCOC1O)OCc1ccccc1` (stereo partly drawn) [Example 23]: on human cathepsin L, the IC50 amounted to 28 nM.
Consider `CC(=O)OC1OCC[C@@H]1NC(=O)[C@@H](NC(=O)OCc1ccccc1)C(C)C` (stereo partly drawn) [Example 25, (3S)-2-acetoxy-3-[[N-benzyloxycarbonyl-(L)-valyl]amino]tetrahydrofuran], for which the IC50 at human cathepsin L is 450 nM. Further, in series [1], the activity at 10 µM was determined as 75%.
For `CC(=O)O[C@@H]1OCC[C@@H]1NC(=O)[C@H](CC(C)C)NC(=O)Nc1cccc2ccccc12` [Example 29, (2S,3S)-2-acetoxy-3-[[N-(1-naphthylcarbamoyl)-(L)-leucyl]amino]-tetrahydrofuran], in series [1], the activity at 30 µM worked out at 67%.
Consider `CC(C)C[C@H](NC(=O)Nc1cccc2ccccc12)C(=O)NC1CCOC1O` (stereo partly drawn) [Example 32, 2-hydroxy-3-[[N-(1-naphthylcarbamoyl)-(L)-leucyl]amino]tetrahydrofuran], for which, in series [1], the activity at 30 µM came to 77%.
As for `CC(C)C[C@H](NS(=O)(=O)c1cccc2ccccc12)C(=O)N[C@H]1CCCOC1O` (stereo partly drawn) [Example 35, (3S)-2-hydroxy-3-[[N-(1-naphthalenesulfonyl)-(L)-leucyl]amino]tetrahydropyran], the activity at 10 µM in series [1] worked out at 82%.
Consider `CC(C)C[C@H](NC(=O)OCc1ccccc1)C(=O)N[C@@H](CC(C)C)C(=O)N[C@H]1CCCOC1O` (stereo partly drawn) [Example 38], for which the IC50 on human cathepsin L was found to be 52 nM.
The same measure, in the same setting: to `CCOP(=O)(Cc1ccc(C(=O)N[C@@H](CC(C)C)C(=O)N[C@H]2CCOC2O)cc1)OCC` (stereo partly drawn) [Example 42] belongs 29 nM.
As to `CCCC(CCC)C(=O)N[C@H](C(=O)N[C@H]1CCO[C@H]1OC(C)=O)C(C)C` [Example 60], the “deaths after oral administration” value with mice is listed as “killed no test animals”.
On to `CC(=O)O[C@@H]1OCC[C@@H]1NC(=O)[C@H](CC(C)C)NC(=O)c1cccnc1` [Example 62], for which the IC50 on human cathepsin L amounted to 870 nM.
Same read-out and setting: the same measure for `CC(=O)O[C@@H]1OCC[C@@H]1NC(=O)[C@H](CC(C)C)NC(=O)c1ccccn1` [Example 64]: 690 nM.
In the case of `CCCC(CCC)C(=O)N[C@H](C(=O)N[C@H]1CCO[C@@H]1OC)C(C)C` [Example 73, (2S,3S)-2-methoxy-3-[[N-valproyl-(L)-valyl]amino]tetrahydrofuran], the activity at 10 µM in series [1] worked out at 79%.
The same measure, in the same setting: to `COC(=O)C[C@H](NC(=O)OCc1ccccc1)C(=O)N[C@H]1CCOC1OC` (stereo partly drawn) [Example 74, (3S)-3-[[N-benzyloxycarbonyl-(L)-(3-methoxycarbonyl)alanyl]amino] -2-methoxytetrahydrofuran] belongs 78%.
`COC1OCC[C@@H]1NC(=O)[C@H](CC(C)C)NC(=O)Nc1cccc2ccccc12` (stereo partly drawn) [Example 89, (3S)-2-methoxy-3-[[N-(1-naphthylcarbamoyl)-(L)-leucyl]amino]-tetrahydrofuran]: the 50% inhibitory concentration (IC50) on human cathepsin L was 190 nM.
Consider `CC(C)[C@H](NC(=O)[C@H](CCCNC(=N)N)NC(=O)N[C@@H](Cc1ccccc1)C(=O)O)C(=O)N[C@H](C=O)CCCNC(=N)N` [antipain] ({Phe-CO}-Arg-Val-Arg-aldehyde), for which, in the series with cathepsin L, the “cathepsin L inhibitory activity” value is recorded as “cathepsin L inhibitory activity”.
Take `CC(=O)N[C@@H](CC(C)C)C(=O)N[C@@H](CC(C)C)C(=O)N[C@H](C=O)CCCNC(=N)N` [leupeptin]: in the series on cathepsin L, the “cathepsin L inhibitory activity” value is “cathepsin L inhibitory activity”.
